The nature of this data set: Intraduodenal (id) bioavailability screen in minipigs, oil formulations, vs iv parent dichloro complex. The data set is classed as in vivo, Gottingen minipig. To be noted: for Mini-Pig BioA: id 10 mg/kg, 10% by weight formulation, AUC0->24 h vs iv 1 mg/kg parent chloro complex. The procedure: Compounds were screened for oral bioavailability by injecting the formulated prodrugs directly into the duodenum (intraduodenal or id administration) of the minipig test subjects, thus bypassing the acidic environment of the stomach and thereby eliminating potentially misleading oral bioavailability results that could arise from alteration of the test article drug in the acid environment of the stomach.
The studies were conducted at Xenometrics LLC (Stillwell, Kans.) and the Id bioavailability was determined using various axial ligand derivative complexes of GC4419, GC4444, GC4403 and GC4401.
*Where the iv dose is 1 mg of test article drug per kilogram body weight of the mini-pig, and the dose administered id is 10 mg of test article drug per kg body weight of the mini-pig.
Male Gottingen minipigs (4-5 mo old, 9-12 kg weight) were purchased from Marshall BioResources and housed at Xenometrics. […] The distal end was exteriorized with a reusable accessible hub (see surgical details below). During a recovery period of at least 2 weeks the minipigs were handled daily to acclimate them to the test procedures, i.e., id dosing and blood collections. For each experiment, each minipig received a test article drug dissolved or suspended in an excipient vehicle. […] All dosing experiments were conducted in fasted animals. Food was withdrawn from the minipigs 16 hours before dosing. The minipigs had ad libitum access to water. Dosed minipigs were allowed access to food 6 hour after dosing. The test article was administered at a dose of 10 mg/kg parent drug in 0.1 m L/kg vehicle (e.g., 1.5 mL in 15 kg minipig) as a bolus injection (˜1 minute) via the id cannula. The actual amount of total test article drug administered varied with the formula weight of the prodrug. An equal volume of excipient vehicle was used to flush the cannula after the test article was administered. Approximately 6 hours later, corn oil was used to flush the cannula. After approximately 24 hours post-dose, the catheter was flushed with sterile saline solution and capped. At the following time-points 0.25, 0.5, 1, 2, 4, 8, 24 and 48 hour post-injection, 2 mL blood samples were collected by cranial vena cava puncture (4 mL Sodium heparin Vacutainer, 20 g 1.5″ needle) after the skin surface was wiped with ethanol. The minipig was placed in a sling in a recumbent position without anesthesia for the collection of blood samples. The minipigs were never used more than once per 7 days for experimentation. The blood samples were kept on ice until processed for plasma. Blood samples were centrifuged at 1200×g for ten minutes at 4° C. and plasma samples were transferred to 96 well plate tubes, capped and stored at −20° C. until shipment on dry ice to the analytical laboratory used for measuring the concentration of drug in the plasma. The concentration of the parent manganese pentaaza macrocylic ring complex (independent of the composition of the axial ligands) was measured in plasma using a validated HPLC/MS/MS method that is linear between 50 ng/mL and 20,000 ng/mL.
The oils used for preparing the dosing solutions were used as supplied from commercial sources. The Capmul MCM (NF) is a mixture of mono/diglycerides of caprylic/capric acids and was supplied by ABITEC Corporation, Janesville, Wis. The Miglyol 812 N is a mixture of caprylic/capric acid triglycerides and was supplied by Cremer Oleo Division, Eatontown, N.J. Labrafil M 2125 CS (NF) is chemically defined to be linoleoyl polyoxyl-6 glycerides NF and was supplied by Gattefosse, SAINT-PRIEST Cedex, France. Peceol is chemically defined to be the monoglyceride, glyceryl monooleate NF, and was supplied by Gattefosse, SAINT-PRIEST Cedex, France. Maisine 35-1 is chemically defined to be the monoglyceride glyceryl monolinoleate (NF) and was supplied by Gattefosse, SAINT-PRIEST Cedex, France. Labrasol (NF) is chemically defined to be caprylocaproyl polyoxyl-8 glycerides NF and was supplied by Gattefosse, SAINT-PRIEST Cedex, France. […]

As for “Manganese(II)bis-L--valinato[(4aS,13aS,17aS,21aS)-1,2,3,4,4a,5,6,12,13,13a,14,15,16,17,17a,18,19,20,21,21a- Eicosahydro-11,7-nitrilo-7H-dibenzo[b,h][1,4,7,10] tetraazacyclo-heptadecine-KN5, KN13, KN18, KN21, KN22]- [GC4746]”, under “base oil Capmul MCM”, the “Mini-Pig BioA” value amounted to 13%.
“Manganese(II)bis-octanoato[(4aS,13aS,17aS,21aS)-1,2,3,4,4a,5,6,12,13,13a,14,15,16, 17,17a,18,19,20,21,21a-Eicosahydro-11,7-nitrilo-7H-dibenzo[b,h][1,4,7,10] tetraazacycloheptadecine-KN5, KN13, KN18, KN21, KN22]- [GC4710]”: the “Mini-Pig BioA” value by setting is: (base oil Capmul MCM) 13%; (base oil Labrafil M2125 CS) 21%; (base oil Maisine 35-1) 8%.
As to “Manganese(II)bis-dodecanoato[(4aS,13aS,17aS,21aS)-1,2,3,4,4a,5,6,12,13, 13a,14,15,16,17,17a,18,19,20,21,21a-Eicosahydro-11,7-nitrilo-7H-dibenzo[b,h][1,4,7,10] tetraazacycloheptadecine-KN5, KN13, KN18, KN21, KN22]- [GC4708]”, for the setting “base oil Capmul MCM”, the “Mini-Pig BioA” value is reported as 12%.
Regarding “Manganese(II)bis-L-phenylalaninato[(4aS,13aS,17aS,21aS)-1,2,3,4,4a,5,6,12,13,13a,14,15,16,17,17a,18,19,20,21,21a-Eicosahydro-11,7-nitrilo-7H-dibenzo[b,h][1,4,7,10] tetraazacyclo-heptadecine-KN5, KN13, KN18, KN21, KN22]- [GC4704]”, the “Mini-Pig BioA” value (base oil Capmul MCM) was determined as 10%.
As to “Manganese(II)bis-acetato[(4aS,13aS,17aS,21aS)-1,2,3,4,4a,5,6,12,13,13a,14,15,16,17, 17a,18,19,20,21,21a-Eicosahydro-11,7-nitrilo-7H-dibenzo[b,h][1,4,7,10] tetraazacycloheptadecine-KN5,KN13,KN18,KN21,KN22]- [GC4701]”, the “Mini-Pig BioA” value runs as follows: (base oil Capmul MCM) 15%; (base oil Labrafil M2125 CS) 16%; (base oil Maisine 35-1) 8%; (base oil Peceol) 11%.
For “Manganese(II)bis-propionato[(4aS,13aS,17aS,21aS)-1,2,3,4,4a,5,6,12,13,13a,14,15,16, 17,17a,18,19,20,21,21a-Eicosahydro-11,7-nitrilo-7H-dibenzo[b,h][1,4,7,10] tetraaza-cycloheptadecine-KN5, KN13, KN18, KN21, KN22]- [GC4711]”, the “Mini-Pig BioA” value was determined as 27% (base oil Capmul MCM); 23% (base oil Labrafil M1944 CS); 44% (base oil Labrafil M2125 CS); 29% (base oil Maisine 35-1); 29% (base oil Peceol).
As for “Manganese(II)bis-pivaloato[(4aS,13aS,17aS,21aS)-1,2,3,4,4a,5,6,12,13,13a,14,15,16,17, 17a,18,19,20,21,21a-Eicosahydro-11,7-nitrilo-7H-dibenzo[b,h][1,4,7,10] tetraazacycloheptadecine-KN5, KN13, KN18, KN21, KN22]- [GC4709]”, the “Mini-Pig BioA” value (base oil Capmul MCM) is on record as 17% and the “Mini-Pig BioA” value (base oil Labrafil M2125 CS) was 22%.
For the compound “Manganese(II)bis-racemic-phenylglycinato[6R-Methyl(4aR,13aR,17aR,21aR)-1,2,3,4,4a,5,6,12,13,13a,14,15,16,17,17a,18,19,20,21,21a-Eicosahydro-11,7-nitrilo-7H-dibenzo[b,h][1,4,7,10] tetraazacycloheptadecine-KN5, KN13, KN18, KN21, KN22]- [GC4716]”, under “base oil Capmul MCM”, the “Mini-Pig BioA” value is listed as 34%.
Take `C[C@@H]1CN[C@@H]2CCCC[C@H]2NCc2cccc(n2)CN[C@@H]2CCCC[C@H]2N1.[Cl][Mn][Cl]` [GC4444, reference compound]: the “Mini-Pig BioA” value (base oil Capmul MCM) was 14%.
On to “Manganese(II)bis-Benzoato[(4aS,13aS,17aS,21aS)-1,2,3,4,4a,5,6,12,13,13a,14,15,16,17,17a,18,19,20,21,21a-Eicosahydro-11,7-nitrilo-7H-dibenzo[b,h][1,4,7,10] tetraazacycloheptadecine-KN5, KN13, KN18, KN21, KN22]- [GC4712]”, for which the “Mini-Pig BioA” value is on record as 24% (base oil Capmul MCM), 18% (base oil Maisine 35-1) and 29% (base oil Peceol).
Turning to “Manganese(II)bis-L-phenylglycinato[(4aS,13aS,17aS,21aS)-1,2,3,4,4a,5,6,12,13,13a, 14,15,16,17,17a,18,19,20,21,21a-Eicosahydro-11,7-nitrilo-7H-dibenzo[b,h][1,4,7,10] tetraazacyclo-heptadecine-KN5, KN13, KN18, KN21, KN22]- [GC4702]”, the “Mini-Pig BioA” value (base oil Capmul MCM) stood at 43%, the “Mini-Pig BioA” value (base oil Labrafil M2125 CS) worked out at 25%, the “Mini-Pig BioA” value (base oil Miglyol 812N) is recorded as 42% and the “Mini-Pig BioA” value (base oil Peceol) is 29%. The “bioavailability / absorption, in words” value (minipig id dosing, comparison between axial ligands) is “much better absorbed”.
Consider “Manganese(II)bis-racemic-phenylglycinato[(4aR,13aR,17aR,21aR)-1,2,3,4,4a,5,6,12,13,13a,14,15,16,17,17a,18,19,20,21,21a-Eicosahydro-11,7-nitrilo-7H-dibenzo[b,h][1,4,7,10] tetraazacycloheptadecine-KN5, KN13, KN18, KN21, KN22]- [GC4717]”, for which the “Mini-Pig BioA” value (base oil Capmul MCM) was determined as 26%.
As for “Manganese(II)bis-n-Butyrato[(4aS,13aS,17aS,21aS)-1,2,3,4,4a,5,6,12,13,13a,14,15,16,17,17a,18,19,20,21,21a-Eicosahydro-11,7-nitrilo-7H-dibenzo[b,h][1,4,7,10] tetraazacycloheptadecine-KN5, KN13, KN18, KN21, KN22]- [GC4713]”, the “Mini-Pig BioA” value (base oil Labrafil M2125 CS) turned out to be 21% and the “Mini-Pig BioA” value (base oil Peceol) turned out to be 18%.
Consider “Manganese(II)bis-racemic-phenylglycinato[2S, 21S-Dimethyl(4aR,13aR,17aR,21aR)-1,2,3,4,4a,5,6,12,13,13a,14,15,16,17,17a,18,19,20,21,21a-Eicosahydro-11,7-nitrilo-7H-dibenzo[b,h][1,4,7,10] tetraazacycloheptadecine-KN5, KN13, KN18, KN21, KN22]- [GC4715]”, for which the “Mini-Pig BioA” value (base oil Capmul MCM) came to 36%.
Regarding “Manganese(II)bis-racemic-2-phenylpropionato[(4aS,13aS,17aS,21aS)-1,2,3,4,4a,5,6,12,13,13a,14,15,16,17,17a,18,19,20,21,21a-Eicosahydro-11,7-nitrilo-7H-dibenzo[b,h][1,4,7,10] tetraazacycloheptadecine-KN5, KN13, KN18, KN21, KN22]- [GC4705]”, the “Mini-Pig BioA” value is, setting by setting: (base oil Capmul MCM) 23%; (base oil Peceol) 24%.
In the case of “Manganese(II)bis-rac-Mandelato[(4aS,13aS,17aS,21aS)-1,2,3,4,4a,5,6,12,13,13a,14,15,16,17,17a,18,19,20,21,21a-Eicosahydro-11,7-nitrilo-7H-dibenzo[b,h][1,4,7,10] tetraazacycloheptadecine-KN5, KN13, KN18, KN21, KN22]- [GC4706]”, the “Mini-Pig BioA” value (base oil Capmul MCM) worked out at 28%.
Turning to “Manganese(II)bis-propionato[6R-Methyl(4aR,13aR,17aR,21aR)-1,2,3,4,4a,5,6,12,13,13a,14,15,16,17,17a,18,19,20,21,21a-Eicosahydro-11,7-nitrilo-7H-dibenzo[b,h][1,4,7,10] tetraazacycloheptadecine-KN5, KN13, KN18, KN21, KN22]- [GC4747]”, where the note is “base oil Labrafil M2125 CS”, the “Mini-Pig BioA” value was found to be 20%.

The values are drawn from patent US9738670B2, “Pentaaza macrocyclic ring complexes possessing oral bioavailability” (Galera Labs, LLC, priority 2015, dated 2017).
